# Results: article PMC9570490, “Novel Morpholine-Bearing Quinoline Derivatives as Potential Cholinesterase Inhibitors: The Influence of Amine, Carbon Linkers and Phenylamino Groups” (International Journal of Molecular Sciences, 2022)
# What was measured:
# [1] = ABTS radical-scavenging assay
# Experimental: ABTS radical-scavenging activity was measured by using the modified method. The test compound was dissolved in ethanol as 1.0 mg/mL, 0.5 mg/mL, 0.25 mg/mL, 0.125 mg/mL, 0.0625 mg/mL, and 0.03125 mg/mL. Similarly, the ethanol solution of Trolox with the same concentration gradient was prepared as a positive control. ABTS solution at a concentration of 7 mM and potassium persulfate solution at a concentration of 2.45 mM with distilled water were also prepared. The ABTS solution and the potassium persulfate solution were mixed in equal amounts, and then placed in the dark and protected from light for 12 h. The ABTS standard solution was diluted with ethanol until the absorbance value at 734 nm was in the range of 0.7 ± 0.05. Then, 3900 µL of ABTS cation solution was mixed with 100 µL of test compound at different concentrations. The samples were kept in the dark for 10 min at room temperature and absorption was measured at 734 nm on a spectrophotometer. The percentage of ABTS radical-scavenging activity was calculated as follows: (Ac−Ai)/Ac × 100%, where Ai and Ac represented the change in absorbance in the presence and absence of the test sample, respectively.
# [2] = target: T1, BChE (EC 3.1.1.8, from horse serum) (Equus caballus, UniProt P81908); assay: biochemical; conditions: means ± SD, at least three independents
# T1 construct: BChE (EC 3.1.1.8, from horse serum); purchased Sigma-Aldrich; host or cells: horse serum
# T1 sequence (P81908 whole entry): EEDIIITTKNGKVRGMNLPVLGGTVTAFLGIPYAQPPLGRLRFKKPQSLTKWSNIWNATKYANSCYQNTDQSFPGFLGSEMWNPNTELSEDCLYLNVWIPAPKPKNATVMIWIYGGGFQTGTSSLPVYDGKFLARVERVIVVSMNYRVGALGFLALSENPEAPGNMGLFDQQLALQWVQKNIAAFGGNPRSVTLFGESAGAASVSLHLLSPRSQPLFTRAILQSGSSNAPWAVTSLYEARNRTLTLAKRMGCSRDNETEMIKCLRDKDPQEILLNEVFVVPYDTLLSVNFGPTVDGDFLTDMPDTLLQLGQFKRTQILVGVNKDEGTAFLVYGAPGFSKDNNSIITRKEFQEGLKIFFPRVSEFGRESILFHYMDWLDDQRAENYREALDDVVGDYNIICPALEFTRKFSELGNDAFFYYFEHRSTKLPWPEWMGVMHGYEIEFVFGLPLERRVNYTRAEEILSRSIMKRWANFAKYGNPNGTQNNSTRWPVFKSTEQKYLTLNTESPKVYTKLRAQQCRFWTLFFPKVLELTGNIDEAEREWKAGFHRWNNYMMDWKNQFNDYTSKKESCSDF
# Experimental: (§1) AChE and BChE inhibitory activities of compounds were determined by using a modified Ellman’s method. AChE (EC 3.1.1.7, from electric eel), BChE (EC 3.1.1.8, from horse serum), 5,5′-dithiobis(2nitrobenzoic acid) (DTNB), acetylthiocholine iodide (ATCI) and butyrylthiocholine iodide (BTCI) were purchased from Sigma-Aldrich. The reaction mixture contained 140 μL of 100 mM sodium phosphate buffer (pH 8.0), the enzyme solution (either 0.05 U/mL of AChE, 20 μL; or 0.05 U/mL of BChE, 20 μL), and test compound (20 μL). Assayed solutions of test compounds were pre-incubated with corresponding ChE at 25 °C for 15 min. The reaction was initiated by the addition of 10 μL of 10 mM DTNB and 10 μL of 7.5 mM substrate (ATCI or BTCI). The activity was determined by measuring the increase in absorbance at 412 nm at 37 °C in 10 min intervals using a microplate reader. The percentage of inhibition was calculated from the measured data as follows: (Ac − Ai)/Ac × 100%, where Ai and Ac represent the change in the absorbance in the presence of inhibitor and without inhibitor, respectively.
# [3] = target: T2, AChE (EC 3.1.1.7, from electric eel) (Electrophorus electricus, UniProt O42275); assay: biochemical; conditions: for IC50: means ± SD, at least three independents
# T2 construct: purchased Sigma-Aldrich
# T2 sequence (O42275 24-633): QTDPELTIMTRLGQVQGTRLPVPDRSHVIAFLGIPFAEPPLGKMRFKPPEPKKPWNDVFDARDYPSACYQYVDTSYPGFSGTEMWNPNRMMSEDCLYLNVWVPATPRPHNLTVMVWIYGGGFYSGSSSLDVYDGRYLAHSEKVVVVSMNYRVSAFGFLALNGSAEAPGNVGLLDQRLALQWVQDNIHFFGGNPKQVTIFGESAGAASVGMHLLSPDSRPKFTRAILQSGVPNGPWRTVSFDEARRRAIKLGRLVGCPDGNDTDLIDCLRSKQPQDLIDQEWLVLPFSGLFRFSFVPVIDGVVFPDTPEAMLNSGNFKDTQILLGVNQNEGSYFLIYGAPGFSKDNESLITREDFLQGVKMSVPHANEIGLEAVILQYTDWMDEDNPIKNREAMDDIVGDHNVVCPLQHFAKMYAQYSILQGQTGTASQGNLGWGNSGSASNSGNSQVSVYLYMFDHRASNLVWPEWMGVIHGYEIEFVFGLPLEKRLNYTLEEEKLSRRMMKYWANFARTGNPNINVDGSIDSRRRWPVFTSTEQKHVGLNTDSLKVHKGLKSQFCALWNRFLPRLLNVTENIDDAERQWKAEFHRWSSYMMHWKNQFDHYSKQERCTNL
# Experimental: as §1
# [4] = Water solubility, shake-flask method; assay type: physicochemical; conditions: thermodynamic from solid, double distilled water, 37 °C
# Experimental: Water solubility is regarded as another vital descriptor for BBB penetration, where high solubility is considered as a prerequisite for a rapid absorption and higher bioavailability of a drug candidate. […] With this experiment, we have obtained their data as 0.62, 3.03, 12.9, and […] for the selected compounds 11a, 11g, 12a, and 12c, respectively.
# Solubility was determined by using the shake-flask method.The desired amount of the compound was placed in a test tube, to which an appropriate amount of double distilled water was introduced. The suspension was agitated on a plate shaker at 37 °C for 24 h. After centrifuging, HPLC analyses of supernatant was performed. The solubility of the compound was obtained from its HPLC result.
# [5] = Lipophilicity (LogP) determination, shake-flask octanol/water; assay type: physicochemical; conditions: HPLC, read-out: LogP (experimental)
# Text: For anti-Alzheimer drug candidates, the ability to cross the blood–brain barrier (BBB) and to enter the central nervous system (CNS) is crucial to achieve their pharmacological target binding and activity, and CNS drugs require more strict rules for a successful penetration. […] Besides, for molecules to penetrate the BBB, a topological polar surface area (TPSA) value less than 90 Å ^2 is usually needed and molecules with a TPSA of greater than 120 Å ^2 tend to be poor in permeating cell membranes. Therefore, the molar mass (MW), LogP, and TPSA of all target compounds were simulated by ChemDraw 19.0 (Table 1). […] Because LogP was thought as an important physicochemical parameter to evaluate the ability to cross BBB, the LogP of some compounds was further assessed in experiments.
# The lipophilicities of test compounds were determined using the traditional shake-flask method. A solid test compound (2 mg) was placed into a 10 mL pear-shaped flask, and measured volumes of octanol and water were added for logP determination. The resulting biphasic mixture was stirred for 24 h and then left without stirring for 12 h to allow phase separation. The test compound in each phase was sampled and quantitated using HPLC. The areas under the peaks were divided and the log taken.
Structure (SMILES),ABTS radical-scavenging IC50 [1] [µg/mL],IC50 [1] [µM],IC50 [2] [µM],SI for AChE = IC50 BChE/IC50 AChE [3],IC50 [3] [µM],solubility at 24 h [4] [mg/mL],logP at 24 h [5]
"COc1cc2c(Nc3ccc(O)cc3)c([N+](=O)[O-])cnc2cc1OCCCN1CCOCC1 [11e, 6-Methoxy-7-(3-Morpholinopropoxy)-3-Nitro-4-(4-Hydroxylphenylamino)-Quinoline]",12.01 ± 1.49,26.4 ± 3.28,> 150,>4.35,34.47 ± 0.09,,
"COc1ccc(Nc2c([N+](=O)[O-])cnc3cc(OCCCN4CCOCC4)c(OC)cc23)cc1 [11f, 6-Methoxy-7-(3-Morpholinopropoxy)-3-Nitro-4-(4-Methoxyphenylamino)-Quinoline]",4.25 ± 0.63,9.07 ± 1.34,96.6 ± 4.75,7.54,12.8 ± 0.55,,
"COc1cc2c(Nc3ccc(O)cc3)c([N+](=O)[O-])cnc2cc1OCCN1CCOCC1 [11k, 6-Methoxy-7-(2-Morpholinoethoxy)-3-Nitro-4-(4-Hydroxylphenylamino)-Quinoline]",5.75 ± 1.37,,> 150,>8.11,18.5 ± 1.74,,
"COc1ccc(Nc2c([N+](=O)[O-])cnc3cc(OCCN4CCOCC4)c(OC)cc23)cc1 [11l, 6-Methoxy-7-(2-Morpholinoethoxy)-3-Nitro-4-(4-Methoxyphenyamino)-Quinoline]",2.75 ± 0.53,6.05 ± 1.17,63.9 ± 2.87,7.03,9.08 ± 0.53,,
"COc1cc2c(Nc3ccc(O)cc3)c([N+](=O)[O-])cnc2cc1OCCCCN1CCOCC1 [11q, 6-Methoxy-7-(4-Morpholinobutoxy)-3-Nitro-4-(4-Hydroxyphenylamino)-Quinoline]",26.12 ± 2.13,55.8 ± 4.55,> 150,>4.07,36.8 ± 0.45,,
"COc1ccc(Nc2c([N+](=O)[O-])cnc3cc(OCCCCN4CCOCC4)c(OC)cc23)cc1 [11r, 6-Methoxy-7-(4-Morpholinobutoxy)-3-Nitro-4-(4-Methoxyphenylamino)-Quinoline]",11.25 ± 1.27,23.3 ± 2.63,106 ± 1.16,5.65,18.9 ± 0.51,,
"COc1cc2c(Nc3ccccc3)c(N)cnc2cc1OCCCN1CCOCC1 [12a, 6-Methoxy-7-(3-Morpholinopropoxy)-3-Amino-4-Phenylamino-Quinoline]",,,30.5 ± 2.48,3.34,9.13 ± 0.42,12.9,2.07
"COc1cc2c(Nc3cccc(Cl)c3)c(N)cnc2cc1OCCCN1CCOCC1 [12c, 6-Methoxy-7-(3-Morpholinopropoxy)-3-Amino-4-(3-Chlorophenylamino)-Quinoline]",,,27.8 ± 2.16,1.26,22.1 ± 0.33,10.5,2.35
"Cc1c(C)c2c(c(C)c1O)CCC(C)(C(=O)O)O2 (centres unmarked) [Trolox, reference compound]",2.76 ± 0.19,11 ± 0.76,,,,,
